Source: publication PMC9437101, “Curcumin-based-fluorescent probes targeting ALDH1A3 as a promising tool for glioblastoma precision surgery and early diagnosis” (Communications Biology, 2022)
Values joined by “and” are separate entries in the source; they are usually repeats but may differ in a detail not shown here. Equal entries are not always repeated.

Legend:
Experiment in all cases: Fluorescence signal change of probe with recombinant enzyme (cross reaction assay)
Type in all cases: binding
[1] = target: T1, ALDH1A1 (Homo sapiens, UniProt P00352); conditions: probe 10 μM; for probe fluorescence intensity (normalized): ALDH1A1 100 μM
T1 construct: E. coli BL21 (DE3) were transformed with the full-length expression vector of each isoform; His-tag; made in house; host or cells: E. coli BL21 (DE3)
T1 sequence (P00352 1-501): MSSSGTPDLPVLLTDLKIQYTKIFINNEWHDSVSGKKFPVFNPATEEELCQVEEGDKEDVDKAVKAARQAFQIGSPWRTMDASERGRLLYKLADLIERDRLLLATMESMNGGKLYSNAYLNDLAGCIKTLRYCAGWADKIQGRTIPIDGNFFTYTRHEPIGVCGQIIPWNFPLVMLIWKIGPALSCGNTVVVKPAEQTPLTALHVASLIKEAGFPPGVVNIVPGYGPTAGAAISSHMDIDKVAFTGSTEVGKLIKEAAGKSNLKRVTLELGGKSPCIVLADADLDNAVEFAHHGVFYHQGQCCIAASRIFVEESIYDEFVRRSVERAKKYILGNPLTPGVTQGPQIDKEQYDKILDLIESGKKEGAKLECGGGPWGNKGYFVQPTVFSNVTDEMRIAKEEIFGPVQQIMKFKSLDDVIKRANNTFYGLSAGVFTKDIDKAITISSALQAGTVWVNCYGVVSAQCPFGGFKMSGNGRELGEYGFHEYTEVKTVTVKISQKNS
From the text: (§1) All five fluorescent compounds were firstly characterized for their solubility in physiological buffer and for their absorbance values. We then performed a 3D analysis using a TECAN SPARK to simultaneously evaluate the excitation and the emission wavelengths, that were supposed to be similar to the curcumin ones[48]. […] For these reasons, we decided to continue the biochemical characterization on Probe 10 and 11 using the selected parameters (Fig. 2). The fluorescent signal changes for both molecules upon binding to the target, were firstly evaluated with recombinant human ALDH1A3. […] To better characterized our fluorescent compounds, we tested their potential cross-reactivity toward the other two isoforms of the ALDH1A subfamily. […] In addition, a wide range of biologically relevant analytes were tested at a concentration of 100 μM in complex with a fixed concentration of 10 μM of the probe (either probe 10 or probe 11), to make sure that no potential off-target signals could affect the analysis. More specifically, we checked if there were abnormal fluorescence signals that could have been contributed by the presence of biologically relevant compounds, (e.g., biologically relevant amino acids), to buffers and molecules commonly used in experimental procedures.
(§2) Based on the values obtained by the 3D analysis, a wide series of biomolecules directly used in the biochemical experiment, both in vitro and in vivo, and listed in Table 1, were tested in complex with a fixed concentration of 10 μM of both probes, to measure any possible cross reaction signal.

[2] = target: T2, ALDH1A3 (Homo sapiens, UniProt P47895); conditions: probe 10 μM; for probe fluorescence intensity (normalized): ALDH1A3 100 μM; for increase in the intensity of the fluorescent signal on addition of ALDH1A3: vs probe alone
T2 construct: E. coli BL21 (DE3) were transformed with the full-length expression vector of each isoform; His-tag; made in house; host or cells: E. coli BL21 (DE3)
T2 sequence (P47895 1-512): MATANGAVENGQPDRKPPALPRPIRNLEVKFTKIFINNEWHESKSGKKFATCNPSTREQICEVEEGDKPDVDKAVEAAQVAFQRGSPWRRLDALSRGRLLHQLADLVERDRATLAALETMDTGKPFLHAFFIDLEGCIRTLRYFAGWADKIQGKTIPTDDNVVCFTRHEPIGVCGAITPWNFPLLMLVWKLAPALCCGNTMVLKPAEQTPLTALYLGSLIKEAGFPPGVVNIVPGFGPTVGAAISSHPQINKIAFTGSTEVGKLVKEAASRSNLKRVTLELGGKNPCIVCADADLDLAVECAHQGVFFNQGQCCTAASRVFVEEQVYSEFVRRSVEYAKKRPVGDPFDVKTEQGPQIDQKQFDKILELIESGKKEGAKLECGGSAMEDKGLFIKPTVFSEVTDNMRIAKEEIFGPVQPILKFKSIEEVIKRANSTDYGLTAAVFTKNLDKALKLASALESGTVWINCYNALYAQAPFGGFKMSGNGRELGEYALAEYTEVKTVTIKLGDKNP
From the text: as §1, §2

[3] = target: T3, ALDH1A2 (Homo sapiens, UniProt O94788); conditions: probe 10 μM; for probe fluorescence intensity (normalized): ALDH1A2 100 μM
T3 construct: E. coli BL21 (DE3) were transformed with the full-length expression vector of each isoform; His-tag; made in house; host or cells: E. coli BL21 (DE3)
T3 sequence (O94788 1-518): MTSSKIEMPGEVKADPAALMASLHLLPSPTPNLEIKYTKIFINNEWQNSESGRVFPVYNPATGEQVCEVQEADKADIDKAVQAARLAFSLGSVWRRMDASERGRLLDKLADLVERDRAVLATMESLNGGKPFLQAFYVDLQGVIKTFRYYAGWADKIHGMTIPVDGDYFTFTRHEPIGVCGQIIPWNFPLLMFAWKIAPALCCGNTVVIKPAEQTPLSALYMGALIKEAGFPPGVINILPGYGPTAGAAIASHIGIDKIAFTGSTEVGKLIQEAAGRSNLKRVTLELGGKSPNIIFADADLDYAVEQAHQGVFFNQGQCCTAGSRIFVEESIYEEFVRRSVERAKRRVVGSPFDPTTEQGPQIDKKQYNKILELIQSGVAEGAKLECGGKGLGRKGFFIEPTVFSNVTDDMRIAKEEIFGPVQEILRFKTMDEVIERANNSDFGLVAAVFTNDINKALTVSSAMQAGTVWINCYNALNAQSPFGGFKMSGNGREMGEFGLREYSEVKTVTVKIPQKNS
From the text: as §1, §2

probe fluorescence intensity (normalized) ([1]; listed as probe A)	probe fluorescence intensity (normalized) ([2]; listed as probe A)	probe fluorescence intensity (normalized) ([3]; listed as probe A)	SMILES	probe fluorescence intensity (normalized) ([1]; listed as probe B)	reduction of the fluorescence signal with ALDH1A1 compared to ALDH1A3 [1]	probe fluorescence intensity (normalized) ([2]; listed as probe B)	increase in the intensity of the fluorescent signal on addition of ALDH1A3 [2]	probe fluorescence intensity (normalized) ([3]; listed as probe B)	reduction of the fluorescence signal with ALDH1A2 compared to ALDH1A3 [3]
			COc1cc(/C=C/C(O)=C/C(=O)/C=C/c2ccc(OCc3cn(CCOc4ccc(C=O)cc4)nn3)c(OC)c2)ccc1O [Probe 10]	2.886 and 2.75 and 2.685	about 2 folds	11.108 and 11.7869 and 9.709	about 12 folds	4.479 and 4.412 and 3.9708	~4 folds
4.322 and 4.415 and 4.4337	7.871 and 7.494 and 8.003	5.638 and 5.434 and 5.428	CCOC(=O)Cn1cc(COc2ccc(/C=C/C(=O)/C=C(O)/C=C/c3ccc(O)c(OC)c3)cc2OC)nn1 [Probe 11]		4 folds		~8 folds		6 folds
